Test results as given in the supplement of paper PMC8612539.
In brackets after ≈: the same amount, converted by molar mass.

Tested on: Pasteurella multocida
Assay: minimum inhibitory concentration (MIC)
Procedure: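 Broth microdilution MIC (Sensititre BOPO7F bovine plate, CLSI methods) of 19 antimicrobials against field isolates of P. multocida, M. haemolytica, H. somni (deep nasopharyngeal swabs) and E. coli, Enterococcus spp. (rectal swabs) from weaned dairy heifers. Incubation 16-24 h at 35 C. MIC is the lowest concentration preventing visible growth. Values with <= or > lie at the tested range limits. Trimethoprim-sulfamethoxazole is given as the trimethoprim component of a 1:19 mixture.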

CO/N=C(\C(=O)N[C@@H]1C(=O)N2C(C(=O)O)=C(CSC(=O)c3ccco3)CS[C@H]12)c1csc(N)n1 [Ceftiofur]
Settings | minimum inhibitory concentration [µg/mL]
isolate (source animal id): 10 | ≤ 0.25
isolate (source animal id): 11 | ≤ 0.25
isolate (source animal id): 12 | ≤ 0.25
isolate (source animal id): 19 | ≤ 0.25
isolate (source animal id): 23 | ≤ 0.25
isolate (source animal id): 26 | ≤ 0.25
isolate (source animal id): 98 | ≤ 0.25
isolate (source animal id): 104 | ≤ 0.25
isolate (source animal id): 115 | ≤ 0.25
isolate (source animal id): 117 | ≤ 0.25
isolate (source animal id): 118 | ≤ 0.25
isolate (source animal id): 121 | ≤ 0.25
isolate (source animal id): 124 | ≤ 0.25
isolate (source animal id): 125 | ≤ 0.25
isolate (source animal id): 128 | ≤ 0.25
isolate (source animal id): 131 | ≤ 0.25
isolate (source animal id): 135 | ≤ 0.25
isolate (source animal id): 136 | ≤ 0.25
isolate (source animal id): 140 | ≤ 0.25
isolate (source animal id): 144 | ≤ 0.25
isolate (source animal id): 146 | ≤ 0.25
isolate (source animal id): 150 | ≤ 0.25
isolate (source animal id): 151 | ≤ 0.25
isolate (source animal id): 153 | ≤ 0.25
isolate (source animal id): 155 | ≤ 0.25
isolate (source animal id): 157 | ≤ 0.25
isolate (source animal id): 160 | ≤ 0.25
isolate (source animal id): 164 | ≤ 0.25
isolate (source animal id): 165 | ≤ 0.25
isolate (source animal id): 167 | ≤ 0.25
isolate (source animal id): 168 | ≤ 0.25
isolate (source animal id): 169 | ≤ 0.25
isolate (source animal id): 170 | ≤ 0.25
isolate (source animal id): 171 | ≤ 0.25
isolate (source animal id): 172 | ≤ 0.25
isolate (source animal id): 173 | ≤ 0.25
isolate (source animal id): 174 | ≤ 0.25
isolate (source animal id): 175 | 1 (≈ 1.91 µM)
isolate (source animal id): 176 | ≤ 0.25
isolate (source animal id): 177 | ≤ 0.25
isolate (source animal id): 178 | ≤ 0.25
isolate (source animal id): 179 | ≤ 0.25
isolate (source animal id): 182 | ≤ 0.25
isolate (source animal id): 192 | ≤ 0.25
isolate (source animal id): 193 | ≤ 0.25
isolate (source animal id): 195 | ≤ 0.25
isolate (source animal id): 196 | ≤ 0.25
isolate (source animal id): 197 | ≤ 0.25
isolate (source animal id): 198 | ≤ 0.25
isolate (source animal id): 199 | ≤ 0.25
isolate (source animal id): 200 | ≤ 0.25
isolate (source animal id): 201 | ≤ 0.25
isolate (source animal id): 203 | ≤ 0.25
isolate (source animal id): 204 | ≤ 0.25
isolate (source animal id): 205 | ≤ 0.25
isolate (source animal id): 206 | ≤ 0.25
isolate (source animal id): 207 | ≤ 0.25
isolate (source animal id): 208 | ≤ 0.25
isolate (source animal id): 209 | ≤ 0.25
isolate (source animal id): 210 | ≤ 0.25
isolate (source animal id): 213 | ≤ 0.25
isolate (source animal id): 216 | ≤ 0.25
isolate (source animal id): 223 | ≤ 0.25
isolate (source animal id): 227 | ≤ 0.25
isolate (source animal id): 229 | ≤ 0.25
isolate (source animal id): 233 | ≤ 0.25
isolate (source animal id): 234 | ≤ 0.25
isolate (source animal id): 237 | ≤ 0.25
isolate (source animal id): 241 | ≤ 0.25
isolate (source animal id): 245 | ≤ 0.25
isolate (source animal id): 247 | ≤ 0.25
isolate (source animal id): 250 | ≤ 0.25
isolate (source animal id): 254 | ≤ 0.25
isolate (source animal id): 255 | ≤ 0.25
isolate (source animal id): 258 | ≤ 0.25
isolate (source animal id): 261 | ≤ 0.25
isolate (source animal id): 262 | ≤ 0.25
isolate (source animal id): 269 | ≤ 0.25
isolate (source animal id): 270 | ≤ 0.25
isolate (source animal id): 274 | ≤ 0.25
isolate (source animal id): 275 | ≤ 0.25
isolate (source animal id): 276 | ≤ 0.25
isolate (source animal id): 277 | ≤ 0.25
isolate (source animal id): 278 | ≤ 0.25
isolate (source animal id): 279 | ≤ 0.25
isolate (source animal id): 280 | ≤ 0.25
isolate (source animal id): 284 | ≤ 0.25
isolate (source animal id): 285 | ≤ 0.25
isolate (source animal id): 287 | ≤ 0.25
isolate (source animal id): 290 | ≤ 0.25
isolate (source animal id): 294 | ≤ 0.25
isolate (source animal id): 295 | ≤ 0.25
isolate (source animal id): 296 | ≤ 0.25
isolate (source animal id): 307 | ≤ 0.25
isolate (source animal id): 310 | ≤ 0.25
isolate (source animal id): 311 | ≤ 0.25
isolate (source animal id): 312 | ≤ 0.25
isolate (source animal id): 313 | ≤ 0.25
isolate (source animal id): 315 | ≤ 0.25
isolate (source animal id): 316 | ≤ 0.25

CNC(C)C1CCC(N)C(OC2C(N)CC(N)C(OC3OCC(C)(O)C(NC)C3O)C2O)O1 (stereo not given) [Gentamicin]
Settings | minimum inhibitory concentration [µg/mL]
isolate (source animal id): 10 | 4 (≈ 8.38 µM)
isolate (source animal id): 11 | 2 (≈ 4.19 µM)
isolate (source animal id): 12 | 4 (≈ 8.38 µM)
isolate (source animal id): 19 | 4 (≈ 8.38 µM)
isolate (source animal id): 23 | 4 (≈ 8.38 µM)
isolate (source animal id): 26 | 4 (≈ 8.38 µM)
isolate (source animal id): 98 | 4 (≈ 8.38 µM)
isolate (source animal id): 104 | 2 (≈ 4.19 µM)
isolate (source animal id): 115 | 4 (≈ 8.38 µM)
isolate (source animal id): 117 | 4 (≈ 8.38 µM)
isolate (source animal id): 118 | 4 (≈ 8.38 µM)
isolate (source animal id): 121 | 4 (≈ 8.38 µM)
isolate (source animal id): 124 | 4 (≈ 8.38 µM)
isolate (source animal id): 125 | 4 (≈ 8.38 µM)
isolate (source animal id): 128 | 4 (≈ 8.38 µM)
isolate (source animal id): 131 | 16 (≈ 33.5 µM)
isolate (source animal id): 135 | 8 (≈ 16.8 µM)
isolate (source animal id): 136 | 4 (≈ 8.38 µM)
isolate (source animal id): 140 | 4 (≈ 8.38 µM)
isolate (source animal id): 144 | 4 (≈ 8.38 µM)
isolate (source animal id): 146 | 4 (≈ 8.38 µM)
isolate (source animal id): 150 | 4 (≈ 8.38 µM)
isolate (source animal id): 151 | 4 (≈ 8.38 µM)
isolate (source animal id): 153 | 4 (≈ 8.38 µM)
isolate (source animal id): 155 | 4 (≈ 8.38 µM)
isolate (source animal id): 157 | 4 (≈ 8.38 µM)
isolate (source animal id): 160 | 4 (≈ 8.38 µM)
isolate (source animal id): 164 | 4 (≈ 8.38 µM)
isolate (source animal id): 165 | 4 (≈ 8.38 µM)
isolate (source animal id): 167 | 4 (≈ 8.38 µM)
isolate (source animal id): 168 | 4 (≈ 8.38 µM)
isolate (source animal id): 169 | 4 (≈ 8.38 µM)
isolate (source animal id): 170 | 4 (≈ 8.38 µM)
isolate (source animal id): 171 | 4 (≈ 8.38 µM)
isolate (source animal id): 172 | 4 (≈ 8.38 µM)
isolate (source animal id): 173 | 4 (≈ 8.38 µM)
isolate (source animal id): 174 | 4 (≈ 8.38 µM)
isolate (source animal id): 175 | 4 (≈ 8.38 µM)
isolate (source animal id): 176 | 4 (≈ 8.38 µM)
isolate (source animal id): 177 | 4 (≈ 8.38 µM)
isolate (source animal id): 178 | 4 (≈ 8.38 µM)
isolate (source animal id): 179 | 4 (≈ 8.38 µM)
isolate (source animal id): 182 | 4 (≈ 8.38 µM)
isolate (source animal id): 192 | 4 (≈ 8.38 µM)
isolate (source animal id): 193 | 4 (≈ 8.38 µM)
isolate (source animal id): 195 | 4 (≈ 8.38 µM)
isolate (source animal id): 196 | 4 (≈ 8.38 µM)
isolate (source animal id): 197 | 4 (≈ 8.38 µM)
isolate (source animal id): 198 | 4 (≈ 8.38 µM)
isolate (source animal id): 199 | 4 (≈ 8.38 µM)
isolate (source animal id): 200 | 4 (≈ 8.38 µM)
isolate (source animal id): 201 | 4 (≈ 8.38 µM)
isolate (source animal id): 203 | 4 (≈ 8.38 µM)
isolate (source animal id): 204 | 4 (≈ 8.38 µM)
isolate (source animal id): 205 | 4 (≈ 8.38 µM)
isolate (source animal id): 206 | 4 (≈ 8.38 µM)
isolate (source animal id): 207 | 4 (≈ 8.38 µM)
isolate (source animal id): 208 | 4 (≈ 8.38 µM)
isolate (source animal id): 209 | 4 (≈ 8.38 µM)
isolate (source animal id): 210 | 4 (≈ 8.38 µM)
isolate (source animal id): 213 | 4 (≈ 8.38 µM)
isolate (source animal id): 216 | 4 (≈ 8.38 µM)
isolate (source animal id): 223 | 4 (≈ 8.38 µM)
isolate (source animal id): 227 | 2 (≈ 4.19 µM)
isolate (source animal id): 229 | 2 (≈ 4.19 µM)
isolate (source animal id): 233 | 4 (≈ 8.38 µM)
isolate (source animal id): 234 | 4 (≈ 8.38 µM)
isolate (source animal id): 237 | 4 (≈ 8.38 µM)
isolate (source animal id): 241 | 4 (≈ 8.38 µM)
isolate (source animal id): 245 | 4 (≈ 8.38 µM)
isolate (source animal id): 247 | 4 (≈ 8.38 µM)
isolate (source animal id): 250 | 2 (≈ 4.19 µM)
isolate (source animal id): 254 | 4 (≈ 8.38 µM)
isolate (source animal id): 255 | 4 (≈ 8.38 µM)
isolate (source animal id): 258 | 4 (≈ 8.38 µM)
isolate (source animal id): 261 | 2 (≈ 4.19 µM)
isolate (source animal id): 262 | 4 (≈ 8.38 µM)
isolate (source animal id): 269 | 4 (≈ 8.38 µM)
isolate (source animal id): 270 | 4 (≈ 8.38 µM)
isolate (source animal id): 274 | 4 (≈ 8.38 µM)
isolate (source animal id): 275 | 4 (≈ 8.38 µM)
isolate (source animal id): 276 | 4 (≈ 8.38 µM)
isolate (source animal id): 277 | 4 (≈ 8.38 µM)
isolate (source animal id): 278 | 4 (≈ 8.38 µM)
isolate (source animal id): 279 | 4 (≈ 8.38 µM)
isolate (source animal id): 280 | 4 (≈ 8.38 µM)
isolate (source animal id): 284 | 8 (≈ 16.8 µM)
isolate (source animal id): 285 | 2 (≈ 4.19 µM)
isolate (source animal id): 287 | 2 (≈ 4.19 µM)
isolate (source animal id): 290 | 4 (≈ 8.38 µM)
isolate (source animal id): 294 | 4 (≈ 8.38 µM)
isolate (source animal id): 295 | 2 (≈ 4.19 µM)
isolate (source animal id): 296 | 2 (≈ 4.19 µM)
isolate (source animal id): 307 | 4 (≈ 8.38 µM)
isolate (source animal id): 310 | 4 (≈ 8.38 µM)
isolate (source animal id): 311 | 4 (≈ 8.38 µM)
isolate (source animal id): 312 | ≤ 1
isolate (source animal id): 313 | 2 (≈ 4.19 µM)
isolate (source animal id): 315 | 4 (≈ 8.38 µM)
isolate (source animal id): 316 | 4 (≈ 8.38 µM)
